Experimental findings from PubChem BioAssay AID1259407 (Chemical Carcinogenesis Research Information System (CCRIS), 2018) are described below.

The test system of this data set is CCRIS mutagenicity, Ames/micronucleus/aberration tests. Put plainly: CCRIS mutagenicity studies.
Where [1] appears, read: Test System: AMES SALMONELLA TYPHIMURIUM, Strain/Indicator: TA100, Metabolic Activation: NONE, Method: PREINCUBATION
[2] abbreviates: Test System: AMES SALMONELLA TYPHIMURIUM, Strain/Indicator: TA1535, Metabolic Activation: NONE, Method: PREINCUBATION
The mark [3] stands for this setting: Test System: AMES SALMONELLA TYPHIMURIUM, Strain/Indicator: TA1537, Metabolic Activation: NONE, Method: PREINCUBATION

Calls of active or inactive are those of the source. The rule behind the calls is not given here.

With `CC(=O)/C=C/c1ccc2c(c1)OCO2`, the mutagenic call by setting is: (Test System: AMES SALMONELLA TYPHIMURIUM, Strain/Indicator: TA98, Metabolic Activation: HAMSTER, LIVER, S-9, AROCLOR 1254 (10%), Method: PREINCUBATION) “inactive; negative”; (Test System: AMES SALMONELLA TYPHIMURIUM, Strain/Indicator: TA98, Metabolic Activation: NONE, Method: PREINCUBATION) “inactive; negative”; (Test System: AMES SALMONELLA TYPHIMURIUM, Strain/Indicator: TA98, Metabolic Activation: RAT, LIVER, S-9, AROCLOR 1254 (10%), Method: PREINCUBATION) “inactive; negative”; (Test System: AMES SALMONELLA TYPHIMURIUM, Strain/Indicator: TA100, Metabolic Activation: HAMSTER, LIVER, S-9, AROCLOR 1254 (10%), Method: PREINCUBATION) “inactive; negative”; under setting [1], “inactive; negative”; (Test System: AMES SALMONELLA TYPHIMURIUM, Strain/Indicator: TA100, Metabolic Activation: RAT, LIVER, S-9, AROCLOR 1254 (10%), Method: PREINCUBATION) “inactive; negative”. In addition, the mutagenic call runs as follows: (Test System: AMES SALMONELLA TYPHIMURIUM, Strain/Indicator: TA1535, Metabolic Activation: HAMSTER, LIVER, S-9, AROCLOR 1254 (10%), Method: PREINCUBATION) “inactive; negative”; under setting [2], “inactive; negative”; (Test System: AMES SALMONELLA TYPHIMURIUM, Strain/Indicator: TA1535, Metabolic Activation: RAT, LIVER, S-9, AROCLOR 1254 (10%), Method: PREINCUBATION) “inactive; negative”; (Test System: AMES SALMONELLA TYPHIMURIUM, Strain/Indicator: TA1537, Metabolic Activation: HAMSTER, LIVER, S-9, AROCLOR 1254 (10%), Method: PREINCUBATION) “inactive; negative”; under setting [3], “inactive; negative”; (Test System: AMES SALMONELLA TYPHIMURIUM, Strain/Indicator: TA1537, Metabolic Activation: RAT, LIVER, S-9, AROCLOR 1254 (10%), Method: PREINCUBATION) “inactive; negative”.
Consider `c1ccc(C2CO2)cc1` (stereo unspecified), for which the mutagenic call (End Point: IN VITRO CHROMOSOMAL ABERRATIONS, Test System: CHL CELLS, Metabolic Activation: RAT, LIVER, S-9, SODIUM PHENOBARBITAL AND 5,6-BENZOFLAVONE) is “active; positive (structural changes)”; the mutagenic call (Test System: AMES SALMONELLA TYPHIMURIUM, Strain/Indicator: TA97, Metabolic Activation: NONE, Method: STANDARD PLATE) was “active; positive”; the mutagenic call (Test System: AMES SALMONELLA TYPHIMURIUM, Strain/Indicator: TA97, Metabolic Activation: RAT, LIVER, S-9, AROCLOR 1254, Method: STANDARD PLATE) was “inactive; negative”; the mutagenic call (Test System: AMES SALMONELLA TYPHIMURIUM, Strain/Indicator: TA98, Metabolic Activation: HAMSTER, LIVER, S-9, AROCLOR 1254 (30%), Method: PREINCUBATION) is “inactive; negative”; the mutagenic call (Test System: AMES SALMONELLA TYPHIMURIUM, Strain/Indicator: TA98, Metabolic Activation: NONE, Method: STANDARD PLATE) is “inactive; negative”; the mutagenic call (Test System: AMES SALMONELLA TYPHIMURIUM, Strain/Indicator: TA98, Metabolic Activation: RAT LIVER S-9, PHENOBARBITAL AND BETA-NAPHTHOFLAVONE, Method: PREINCUBATION) was “inactive; negative”. Also, the mutagenic call by setting is: (Test System: AMES SALMONELLA TYPHIMURIUM, Strain/Indicator: TA98, Metabolic Activation: RAT, LIVER, S-9, AROCLOR 1254 (30%), Method: PREINCUBATION) “inactive; negative”; (Test System: AMES SALMONELLA TYPHIMURIUM, Strain/Indicator: TA98, Metabolic Activation: RAT, LIVER, S-9, AROCLOR 1254, Method: STANDARD PLATE) “inactive; negative”; (Test System: AMES SALMONELLA TYPHIMURIUM, Strain/Indicator: TA100, Metabolic Activation: HAMSTER, LIVER, S-9, AROCLOR 1254 (30%), Method: PREINCUBATION) “active; positive”; under setting [1], “active; positive”; (Test System: AMES SALMONELLA TYPHIMURIUM, Strain/Indicator: TA100, Metabolic Activation: NONE, Method: STANDARD PLATE) “active; positive”; (Test System: AMES SALMONELLA TYPHIMURIUM, Strain/Indicator: TA100, Metabolic Activation: RAT LIVER S-9, PHENOBARBITAL AND BETA-NAPHTHOFLAVONE, Method: PREINCUBATION) “active; positive”. In addition, the mutagenic call runs as follows: (Test System: AMES SALMONELLA TYPHIMURIUM, Strain/Indicator: TA100, Metabolic Activation: RAT, LIVER, S-9, AROCLOR 1254 (30%), Method: PREINCUBATION) “active; positive”; (Test System: AMES SALMONELLA TYPHIMURIUM, Strain/Indicator: TA100, Metabolic Activation: RAT, LIVER, S-9, AROCLOR 1254, Method: STANDARD PLATE) “inactive; negative”; (Test System: AMES SALMONELLA TYPHIMURIUM, Strain/Indicator: TA104, Metabolic Activation: NONE, Method: STANDARD PLATE) “active; positive”; under setting [2], “active; positive”; (Test System: AMES SALMONELLA TYPHIMURIUM, Strain/Indicator: TA1535, Metabolic Activation: NONE, Method: STANDARD PLATE) “active; positive”; (Test System: AMES SALMONELLA TYPHIMURIUM, Strain/Indicator: TA1535, Metabolic Activation: RAT LIVER S-9, PHENOBARBITAL AND BETA-NAPHTHOFLAVONE, Method: PREINCUBATION) “active; positive”. Further, the mutagenic call reads like this: under setting [3], “active; positive”; (Test System: AMES SALMONELLA TYPHIMURIUM, Strain/Indicator: TA1537, Metabolic Activation: RAT LIVER S-9, PHENOBARBITAL AND BETA-NAPHTHOFLAVONE, Method: PREINCUBATION) “inactive; negative”; (Test System: AMES SALMONELLA TYPHIMURIUM, Strain/Indicator: TA4001, Metabolic Activation: NONE, Method: STANDARD PLATE) “active; positive”; (Test System: AMES SALMONELLA TYPHIMURIUM, Strain/Indicator: TA4006, Metabolic Activation: NONE, Method: STANDARD PLATE) “active; positive”; (Test System: CHINESE HAMSTER V-79, Strain/Indicator: V-79/6-THIOGUANINE, Metabolic Activation: NONE, Method: FLASK ASSAY) “inactive; negative”; (Test System: CHINESE HAMSTER V-79, Strain/Indicator: V-79/8-AZAGUANINE, Metabolic Activation: NONE, Method: STANDARD PLATE) “active; positive”. For the same compound, the mutagenic call (Test System: E. COLI, Strain/Indicator: WP2 UVRA, Metabolic Activation: NONE, Method: STANDARD PLATE) was “active; positive”; the mutagenic call (Test System: E.COLI, Strain/Indicator: WP2UVRA, Metabolic Activation: NONE, Method: PREINCUBATION) is “active; positive”; the mutagenic call (Test System: E.COLI, Strain/Indicator: WP2UVRA, Metabolic Activation: RAT LIVER S-9, PHENOBARBITAL AND BETA-NAPHTHOFLAVONE, Method: PREINCUBATION) was “active; positive”; the mutagenic call (Test System: HUMAN T LYMPHOCYTES, PRIMARY CULTURES, Strain/Indicator: HPRT/6-THIOGUANINE, Metabolic Activation: NONE, Method: SUSPENSION/PLATE) was “active; positive”; the mutagenic call (Test System: UDS HUMAN CELLS, Strain/Indicator: THY INCORP (NON-S-PHASE), Metabolic Activation: NONE, Method: LIQUID SCINTILLATION COUNTING) is “active; positive”.
